These results are taken from patent publication US9340590B2 (priority 2011, dated 2016).

pIC50: −log10 of the molar value. Positions of bridges follow the written chain, without caps; N, C: chain ends. Non-standard residues stand in square brackets, D forms with d. Residues, ends and D or L forms follow the SMILES beside them. *: point of attachment. Pent4ynoyl = C#CCCC(=O)*; Abu = CC[C@H](N)C(=O)O

One experiment deals with hNav1.7 (Homo sapiens, UniProt Q15858). In words: cell-based. The settings on record: Nav1.7 Use IC50.
hNav1.7, sequence (Q15858 whole entry, looked up): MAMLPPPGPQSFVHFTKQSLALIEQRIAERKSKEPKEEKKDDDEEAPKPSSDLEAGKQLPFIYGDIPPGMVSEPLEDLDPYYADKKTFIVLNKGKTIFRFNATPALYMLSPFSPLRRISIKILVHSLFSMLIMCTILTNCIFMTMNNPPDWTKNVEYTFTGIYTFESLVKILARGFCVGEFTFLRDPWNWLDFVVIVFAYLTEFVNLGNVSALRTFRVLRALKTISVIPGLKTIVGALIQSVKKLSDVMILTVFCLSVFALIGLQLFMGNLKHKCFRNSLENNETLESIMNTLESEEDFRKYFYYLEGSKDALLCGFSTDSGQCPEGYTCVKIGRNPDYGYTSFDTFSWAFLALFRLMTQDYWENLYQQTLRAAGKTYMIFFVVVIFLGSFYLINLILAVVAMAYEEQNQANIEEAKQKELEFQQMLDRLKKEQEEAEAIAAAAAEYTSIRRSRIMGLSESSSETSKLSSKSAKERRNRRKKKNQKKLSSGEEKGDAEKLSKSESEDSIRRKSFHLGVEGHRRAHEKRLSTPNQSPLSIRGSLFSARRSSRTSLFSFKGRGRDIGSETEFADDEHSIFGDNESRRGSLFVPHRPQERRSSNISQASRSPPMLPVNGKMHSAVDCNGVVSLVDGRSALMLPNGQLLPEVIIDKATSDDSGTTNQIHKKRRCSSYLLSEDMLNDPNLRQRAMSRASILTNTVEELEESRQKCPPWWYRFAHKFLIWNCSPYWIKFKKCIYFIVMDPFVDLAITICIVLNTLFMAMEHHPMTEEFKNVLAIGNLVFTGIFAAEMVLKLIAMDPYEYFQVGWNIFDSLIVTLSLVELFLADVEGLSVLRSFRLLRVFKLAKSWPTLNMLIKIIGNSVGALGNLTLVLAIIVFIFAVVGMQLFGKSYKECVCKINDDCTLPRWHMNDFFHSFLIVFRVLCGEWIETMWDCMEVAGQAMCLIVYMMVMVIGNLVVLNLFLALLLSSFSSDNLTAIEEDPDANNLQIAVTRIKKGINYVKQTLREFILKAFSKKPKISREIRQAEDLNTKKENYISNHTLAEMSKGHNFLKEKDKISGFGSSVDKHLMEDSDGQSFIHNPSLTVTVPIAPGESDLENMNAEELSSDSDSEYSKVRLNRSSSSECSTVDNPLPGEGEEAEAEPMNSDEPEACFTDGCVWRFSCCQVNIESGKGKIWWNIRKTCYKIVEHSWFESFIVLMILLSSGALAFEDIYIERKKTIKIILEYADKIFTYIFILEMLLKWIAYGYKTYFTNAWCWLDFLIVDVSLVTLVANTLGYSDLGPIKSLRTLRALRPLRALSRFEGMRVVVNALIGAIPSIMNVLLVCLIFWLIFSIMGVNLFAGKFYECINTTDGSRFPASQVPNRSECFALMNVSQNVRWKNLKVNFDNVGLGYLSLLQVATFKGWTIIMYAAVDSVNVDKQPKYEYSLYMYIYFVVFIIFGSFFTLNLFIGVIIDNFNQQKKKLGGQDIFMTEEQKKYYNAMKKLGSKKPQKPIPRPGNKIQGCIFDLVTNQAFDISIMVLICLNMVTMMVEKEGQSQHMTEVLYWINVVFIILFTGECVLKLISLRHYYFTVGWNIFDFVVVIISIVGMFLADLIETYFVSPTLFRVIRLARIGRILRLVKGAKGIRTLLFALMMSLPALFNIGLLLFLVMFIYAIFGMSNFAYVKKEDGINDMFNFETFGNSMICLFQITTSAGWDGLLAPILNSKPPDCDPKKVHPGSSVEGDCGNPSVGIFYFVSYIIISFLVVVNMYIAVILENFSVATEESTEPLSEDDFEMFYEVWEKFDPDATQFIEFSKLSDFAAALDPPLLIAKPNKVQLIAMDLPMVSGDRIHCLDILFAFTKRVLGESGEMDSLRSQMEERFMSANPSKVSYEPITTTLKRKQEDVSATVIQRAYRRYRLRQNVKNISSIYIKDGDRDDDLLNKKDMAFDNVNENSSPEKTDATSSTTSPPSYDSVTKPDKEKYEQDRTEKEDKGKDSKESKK
The next experiment addresses hNav1.5 (Homo sapiens, UniProt Q14524). As to the kind of experiment: cell-based.

hNav1.5, sequence (Q14524 whole entry, looked up): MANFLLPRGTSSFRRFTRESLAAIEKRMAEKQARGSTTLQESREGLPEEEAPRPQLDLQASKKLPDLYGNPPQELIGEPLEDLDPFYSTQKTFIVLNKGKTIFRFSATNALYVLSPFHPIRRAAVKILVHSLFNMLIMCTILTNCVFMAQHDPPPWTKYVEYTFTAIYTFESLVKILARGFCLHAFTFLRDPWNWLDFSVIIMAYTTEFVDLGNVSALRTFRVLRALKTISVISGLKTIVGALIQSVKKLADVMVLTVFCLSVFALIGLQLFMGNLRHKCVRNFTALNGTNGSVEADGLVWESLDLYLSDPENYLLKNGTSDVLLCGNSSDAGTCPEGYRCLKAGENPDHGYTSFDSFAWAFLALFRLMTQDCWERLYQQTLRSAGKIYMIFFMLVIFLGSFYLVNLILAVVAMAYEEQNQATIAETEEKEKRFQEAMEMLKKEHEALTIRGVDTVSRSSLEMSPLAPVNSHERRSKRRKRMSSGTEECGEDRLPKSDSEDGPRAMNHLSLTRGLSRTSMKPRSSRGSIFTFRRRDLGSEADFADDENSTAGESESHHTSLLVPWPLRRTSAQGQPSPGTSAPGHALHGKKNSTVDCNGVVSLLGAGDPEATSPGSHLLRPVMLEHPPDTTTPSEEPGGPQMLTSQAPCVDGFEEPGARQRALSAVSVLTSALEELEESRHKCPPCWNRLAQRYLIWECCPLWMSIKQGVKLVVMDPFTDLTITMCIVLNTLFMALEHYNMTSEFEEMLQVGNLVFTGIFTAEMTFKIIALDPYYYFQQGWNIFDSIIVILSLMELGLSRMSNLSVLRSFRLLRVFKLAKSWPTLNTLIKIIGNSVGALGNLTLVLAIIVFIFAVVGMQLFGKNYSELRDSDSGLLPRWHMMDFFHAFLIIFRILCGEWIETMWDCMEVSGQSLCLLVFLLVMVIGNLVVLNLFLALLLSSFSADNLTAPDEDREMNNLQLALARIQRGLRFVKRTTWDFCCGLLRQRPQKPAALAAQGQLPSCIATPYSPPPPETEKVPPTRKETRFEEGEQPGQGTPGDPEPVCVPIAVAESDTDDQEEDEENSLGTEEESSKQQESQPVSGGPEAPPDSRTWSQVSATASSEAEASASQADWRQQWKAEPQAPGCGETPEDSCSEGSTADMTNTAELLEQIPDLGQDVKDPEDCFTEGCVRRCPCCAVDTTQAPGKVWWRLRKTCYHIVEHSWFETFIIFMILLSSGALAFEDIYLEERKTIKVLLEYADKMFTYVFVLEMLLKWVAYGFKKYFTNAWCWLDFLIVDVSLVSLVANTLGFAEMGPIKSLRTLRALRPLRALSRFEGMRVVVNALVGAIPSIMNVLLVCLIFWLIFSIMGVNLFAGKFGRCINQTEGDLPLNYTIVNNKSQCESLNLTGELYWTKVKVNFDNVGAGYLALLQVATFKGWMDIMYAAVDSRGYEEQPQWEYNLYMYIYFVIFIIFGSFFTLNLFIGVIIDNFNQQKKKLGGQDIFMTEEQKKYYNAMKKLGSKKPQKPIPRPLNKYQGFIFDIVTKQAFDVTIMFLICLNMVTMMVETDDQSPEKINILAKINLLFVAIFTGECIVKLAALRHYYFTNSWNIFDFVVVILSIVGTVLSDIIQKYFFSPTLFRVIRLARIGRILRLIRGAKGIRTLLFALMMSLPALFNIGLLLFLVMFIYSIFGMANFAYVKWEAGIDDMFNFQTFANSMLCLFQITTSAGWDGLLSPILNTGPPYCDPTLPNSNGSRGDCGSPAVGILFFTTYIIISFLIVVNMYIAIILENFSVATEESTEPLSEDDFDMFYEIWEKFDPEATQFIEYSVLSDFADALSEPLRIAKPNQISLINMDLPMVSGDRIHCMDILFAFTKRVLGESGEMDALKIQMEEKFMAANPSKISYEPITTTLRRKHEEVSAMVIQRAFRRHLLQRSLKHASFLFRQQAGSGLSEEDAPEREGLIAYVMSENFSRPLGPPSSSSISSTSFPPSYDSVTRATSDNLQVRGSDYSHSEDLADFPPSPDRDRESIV

Consider `C#CCCC(=O)NCCCC[C@@H]1NC(=O)[C@H](CC(=O)O)NC(=O)[C@@H]2CCCN2C(=O)[C@H]([C@@H](C)CC)NC(=O)[C@@H]2CSSC[C@@H]3NC(=O)[C@H](C(C)C)NC(=O)[C@H](CC(C)C)NC(=O)[C@H](CC(N)=O)NC(=O)[C@@H]4CCCN4C(=O)[C@H](CCCNC(=N)N)NC(=O)[C@H](CSSC[C@H](NC(=O)[C@@H](N)CC(=O)O)C(=O)N[C@@H](CC(C)C)C(=O)NCC(=O)N[C@@H](CC)C(=O)N[C@@H](CC(C)C)C(=O)N[C@@H](CCCNC(=N)N)C(=O)N[C@@H](CCCCN)C(=O)N2)NC(=O)[C@H](CSSC[C@@H](C(=O)N[C@@H](CCCCN)C(=O)N[C@@H](Cc2ccc(O)cc2)C(=O)N[C@H](C(=O)N[C@@H](Cc2ccccc2)C(N)=O)C(C)C)NC(=O)[C@H](Cc2c[nH]c4ccccc24)NC(=O)[C@H](CCCNC(=N)N)NC(=O)[C@H](Cc2c[nH]cn2)NC(=O)[C@H]([C@@H](C)O)NC(=O)[C@H](CCCNC(=N)N)NC(=O)[C@H](CO)NC3=O)NC(=O)[C@H](CCCCN)NC(=O)[C@H](CC(=O)O)NC1=O` (H-DCLG[Abu]LRKCIPDK(Pent4ynoyl)DKCCRPNLVCSRTHRWCKYVF-NH2; disulfide 2-17, 9-23, 16-30), for which the figures for the pIC50 at hNav1.7 and at hNav1.5 were 8.70 and less than 5.00, respectively.

Regarding `CC[C@H](C)[C@@H]1NC(=O)[C@@H]2CSSC[C@@H]3NC(=O)[C@H](C(C)C)NC(=O)[C@H](CC(C)C)NC(=O)[C@H](CC(N)=O)NC(=O)[C@@H]4CCCN4C(=O)[C@H](CCCNC(=N)N)NC(=O)[C@H](CSSC[C@H](NC(=O)[C@H](CC(=O)O)NC(=O)[C@H](CO)NC(=O)CN)C(=O)N[C@@H](CC(C)C)C(=O)NCC(=O)N[C@@H](C)C(=O)N[C@@H](Cc4ccccc4)C(=O)N[C@@H](CCCNC(=N)N)C(=O)N[C@@H](CCCCN)C(=O)N2)NC(=O)[C@H](CSSC[C@@H](C(=O)N[C@@H](CCCCN)C(=O)N[C@@H](Cc2ccc(O)cc2)C(=O)N[C@H](C(=O)N[C@@H](Cc2ccccc2)C(=O)N[C@@H](Cc2ccccc2)C(=O)O)C(C)C)NC(=O)[C@H](Cc2c[nH]c4ccccc24)NC(=O)[C@H](CCCNC(=N)N)NC(=O)[C@H](Cc2c[nH]cn2)NC(=O)[C@H]([C@@H](C)O)NC(=O)[C@H](CCCNC(=N)N)NC(=O)[C@H](CO)NC3=O)NC(=O)[C@H](CCCCN)NC(=O)[C@H](CC(=O)O)NC(=O)[C@H](CC(N)=O)NC(=O)[C@H](CC(=O)O)NC(=O)[C@@H]2CCCN2C1=O` (H-GSDCLGAFRKCIPDNDKCCRPNLVCSRTHRWCKYVFF-OH; disulfide 4-19, 11-25, 18-32), the results for the pIC50 on hNav1.7 and at hNav1.5 were 7.33 and less than 5.00, respectively.

For `C#CCCC(=O)N[C@@H](CC(=O)O)C(=O)N[C@H]1CSSC[C@@H]2NC(=O)[C@@H]3CSSC[C@@H](C(=O)N[C@@H](CCCCN)C(=O)N[C@@H](Cc4ccc(O)cc4)C(=O)N[C@H](C(=O)N[C@@H](Cc4ccccc4)C(N)=O)C(C)C)NC(=O)[C@H](Cc4c[nH]c5ccccc45)NC(=O)[C@H](CCCNC(=N)N)NC(=O)[C@H](Cc4c[nH]cn4)NC(=O)[C@H]([C@@H](C)O)NC(=O)[C@H](CCCNC(=N)N)NC(=O)[C@H](CO)NC(=O)[C@H](CSSC[C@H](NC(=O)[C@H](CCCCN)NC(=O)[C@H](CCCNC(=N)N)NC(=O)[C@H](Cc4ccccc4)NC(=O)[C@H](C)NC(=O)CNC(=O)[C@H](CC(C)C)NC1=O)C(=O)N[C@@H]([C@@H](C)CC)C(=O)N1CCC[C@H]1C(=O)N[C@@H](CC(=O)O)C(=O)N[C@@H](CC)C(=O)N[C@@H](CC(=O)O)C(=O)N[C@@H](CCCCN)C(=O)N3)NC(=O)[C@H](C(C)C)NC(=O)[C@H](CC(C)C)NC(=O)[C@H](CC(N)=O)NC(=O)[C@@H]1CCCN1C(=O)[C@H](CCCNC(=N)N)NC2=O` (Pent4ynoyl-DCLGAFRKCIPD[Abu]DKCCRPNLVCSRTHRWCKYVF-NH2; disulfide 2-17, 9-23, 16-30), the pIC50 against hNav1.7 was 8.40; on hNav1.5, less than 5.00.

By pIC50 is commonly meant the IC50 on a negative log10 scale, so that one unit is a factor of ten. A high value points to a small IC50.
